Patent US12269800B2, “Delivery of therapeutic alkaloid compounds” (priority 2021, dated 2025)
Like-named read-outs stand apart in the source and are kept apart here.

Legend:
[1] = 5 µM
Description: (§1) 50 uL aliquots of positive controls and test compounds spiked into rat or human plasma (n=2) were added to a pre-warmed plate (37° C.) and shaken at 50 rpm. At each respective time point, the reaction was stopped by adding 500 μL of acetonitrile containing internal standards (100 nM aprozolam, 200 nM caffeine, 100 nM tolbutamide). All samples were vortexed for 10 minutes, followed by centrifugation at 3,220 g for 30 minutes to precipitate proteins. 100 μL of the supernatant is transferred to a new plate. The supernatant will be diluted with ultrapure water according to the LC-MS signal response and peak shape.

[2] = 5 µM; remark: listed apart in the source
Description: as §1

SMILES	Rat Plasma Prodrug (%) ([1]; 0 min)	Rat Plasma Prodrug (%) ([1]; 10 min)	Rat Plasma Prodrug (%) ([1]; 30 min)	Rat Plasma Prodrug (%) ([1]; 60 min)	Rat Plasma Prodrug (%) ([1]; 120 min)	Rat Plasma Prodrug (%) ([1]; 240 min)	Human Plasma Prodrug (%) ([2]; 0 min)	Human Plasma Prodrug (%) ([2]; 10 min)	Human Plasma Prodrug (%) ([2]; 30 min)	Human Plasma Prodrug (%) ([2]; 60 min)	Human Plasma Prodrug (%) ([2]; 120 min)	Human Plasma Prodrug (%) ([2]; 240 min)
COc1ccc([C@@]23CCC(OC(=O)CCN)=C[C@@H]2N(C)CC3)cc1OC [Compound 397, (3aS,7aS)-3a-(3,4-dimethoxyphenyl)-1-methyl-2,3,3a,4,5,7a-hexahydro-1H-indol-6-yl 3-aminopropanoate]	100.0	10.5	0.5	0.1	0.1	0.1	100.0	2.2	0.5	0.1	0.2	0.0
CCCC(CC)CC(=O)OC1=C[C@@H]2N(C)CC[C@]2(c2ccc(OC)c(OC)c2)CC1 (stereo partly drawn) [Compound 398, (3aS,7aS)-3a-(3,4-dimethoxyphenyl)-1-methyl-2,3,3a,4,5,7a-hexahydro-1H-indol-6-yl 3-ethylhexanoate]	100.0	2.8	0.7	0.1	0.0	0.0	100.0	96.4	85.0	72.4	51.6	25.5
COc1ccc([C@@]23CCC(OC(=O)CCC(C)C)=C[C@@H]2N(C)CC3)cc1OC [Compound 399, (3aS,7aS)-3a-(3,4-dimethoxyphenyl)-1-methyl-2,3,3a,4,5,7a-hexahydro-1H-indol-6-yl 4-methylpentanoate]	100.0	0.0	0.0	0.0	0.0	0.0	100.0	5.6	1.1	0.5	0.3	0.2
CCCCCC(C)C(=O)OC1=C[C@@H]2N(C)CC[C@]2(c2ccc(OC)c(OC)c2)CC1 (stereo partly drawn) [Compound 400, (3aS,7aS)-3a-(3,4-dimethoxyphenyl)-1-methyl-2,3,3a,4,5,7a-hexahydro-1H-indol-6-yl 2-methylheptanoate]	100.0	12.6	0.6	0.1	0.1	0.0	100.0	34.7	11.6	5.2	2.3	1.9
CCCCC(CC)C(=O)OC1=C[C@@H]2N(C)CC[C@]2(c2ccc(OC)c(OC)c2)CC1 (stereo partly drawn) [Compound 401, (3aS,7aS)-3a-(3,4-dimethoxyphenyl)-1-methyl-2,3,3a,4,5,7a-hexahydro-1H-indol-6-yl 2-ethylhexanoate]	100.0	84.5	55.8	33.8	16.3	3.3	100.0	95.9	>99	96.6	94.4	93.4
CCCC(C)C(=O)OC1=C[C@@H]2N(C)CC[C@]2(c2ccc(OC)c(OC)c2)CC1 (stereo partly drawn) [Compound 402, (3aS,7aS)-3a-(3,4-dimethoxyphenyl)-1-methyl-2,3,3a,4,5,7a-hexahydro-1H-indol-6-yl 2-methylpentanoate]	100.0	3.5	0.1	0.0	0.0	0.0	100.0	11.3	2.9	2.1	1.6	1.1
COCCCCC(=O)OC1=C[C@@H]2N(C)CC[C@]2(c2ccc(OC)c(OC)c2)CC1 [Compound 404, (3aS,7aS)-3a-(3,4-dimethoxyphenyl)-1-methyl-2,3,3a,4,5,7a-hexahydro-1H-indol-6-yl 5-methoxypentanoate]	100.0	0.3	0.3	0.3	0.3	0.2	100.0	22.9	11.5	7.6	3.8	1.6
COCCOCCC(=O)OC1=C[C@@H]2N(C)CC[C@]2(c2ccc(OC)c(OC)c2)CC1 [Compound 405, (3aS,7aS)-3a-(3,4-dimethoxyphenyl)-1-methyl-2,3,3a,4,5,7a-hexahydro-1H-indol-6-yl 3-(2-methoxyethoxy)propanoate]	100.0	0.1	0.0	0.1	0.0	0.0	100.0	>99	95.0	87.0	65.7	46.7
CCC(C)C(=O)OC1=C[C@@H]2N(C)CC[C@]2(c2ccc(OC)c(OC)c2)CC1 (stereo partly drawn) [Compound 425, (3aS,7aS)-3a-(3,4-dimethoxyphenyl)-1-methyl-2,3,3a,4,5,7a-hexahydro-1H-indol-6-yl 2-methylbutanoate]	100.0	4.4	0.1	0.0	0.0	0.0	100.0	6.5	4.8	4.0	3.0	1.9
CCC(CC)C(=O)OC1=C[C@@H]2N(C)CC[C@]2(c2ccc(OC)c(OC)c2)CC1 [Compound 426, (3aS,7aS)-3a-(3,4-dimethoxyphenyl)-1-methyl-2,3,3a,4,5,7a-hexahydro-1H-indol-6-yl 2-ethylbutanoate]	100.0	70.2	33.2	9.5	0.9	0.1	100.0	87.1	80.3	79.2	73.6	66.4
CCCC(CCC)C(=O)OC1=C[C@@H]2N(C)CC[C@]2(c2ccc(OC)c(OC)c2)CC1 [Compound 427, (3aS,7aS)-3a-(3,4-dimethoxyphenyl)-1-methyl-2,3,3a,4,5,7a-hexahydro-1H-indol-6-yl 2-propylpentanoate]	100.0	93.6	73.4	43.9	16.0	2.3	100.0	>99	96.6	96.9	95.5	91.2
CCC(C)(C)C(=O)OC1=C[C@@H]2N(C)CC[C@]2(c2ccc(OC)c(OC)c2)CC1 [Compound 428, (3aS,7aS)-3a-(3,4-dimethoxyphenyl)-1-methyl-2,3,3a,4,5,7a-hexahydro-1H-indol-6-yl 2,2-dimethylbutanoate]	100.0	90.3	69.9	41.7	18.1	3.9	100.0	82.9	74.5	69.1	56.8	46.0
CCCC(C)(C)C(=O)OC1=C[C@@H]2N(C)CC[C@]2(c2ccc(OC)c(OC)c2)CC1 [Compound 429, (3aS,7aS)-3a-(3,4-dimethoxyphenyl)-1-methyl-2,3,3a,4,5,7a-hexahydro-1H-indol-6-yl 2,2-dimethylpentanoate]	100.0	90.4	83.9	71.9	50.8	26.2	100.0	>99	96.3	95.3	91.8	84.6
CCC(C)(CC)C(=O)OC1=C[C@@H]2N(C)CC[C@]2(c2ccc(OC)c(OC)c2)CC1 [Compound 430, (3aS,7aS)-3a-(3,4-dimethoxyphenyl)-1-methyl-2,3,3a,4,5,7a-hexahydro-1H-indol-6-yl 2-ethyl-2-methylbutanoate]	100.0	98.2	98.3	97.1	94.1	92.8	100.0	>99	>99	>99	>99	95.9
